Test results from paper PMC5460274 (Scientific Reports, 2017).

Assays:
Format in all cases: cell-based
[1] = biological target: T1, dimethylarginine dimethylaminohydrolase 1 (DDAH1) (Homo sapiens, UniProt O94760); assay: UPLC-MS of L-citrulline formation from ADMA; […] inhibition at […]
T1 construct: recombinant DDAH1 over-expressed in HEK293T cells (lysate)

[2] = biological target: T1, dimethylarginine dimethylaminohydrolase 1 (DDAH1); assay: UPLC-MS of L-citrulline formation; […] inhibition at […], time-dependent, reversible on dilution
[3] = biological target: T1, dimethylarginine dimethylaminohydrolase 1 (DDAH1); assay: UPLC-MS of L-citrulline formation; […] inhibition at […], reversible on dilution

T1 sequence (O94760 2-285): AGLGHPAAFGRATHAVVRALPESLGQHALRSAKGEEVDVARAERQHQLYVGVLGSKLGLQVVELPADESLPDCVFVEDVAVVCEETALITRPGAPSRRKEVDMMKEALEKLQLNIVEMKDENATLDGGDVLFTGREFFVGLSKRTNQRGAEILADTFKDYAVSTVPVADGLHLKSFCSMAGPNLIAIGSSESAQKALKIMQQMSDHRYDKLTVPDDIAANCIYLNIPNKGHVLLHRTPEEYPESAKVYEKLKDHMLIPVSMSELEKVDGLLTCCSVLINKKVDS

COCCNC(N)=NCCC[C@H](N)C(=O)NS(C)(=O)=O [10a, ZST316]
% [1]: 72%

Cc1c(OCC(F)(F)F)ccnc1C[S+]([O-])c1nc2ccccc2[nH]1 (stereo not drawn) [LPZ, lansoprazole]
% [2]: 23%

COc1ccc2[nH]c([S+]([O-])Cc3ncc(C)c(OC)c3C)nc2c1 (stereo not drawn) [OPZ, omeprazole]
% [3]: 24%
